The Ki is the dissociation constant of the complex between target and ligand, obtained from inhibition or displacement.

Test [1] deals with Coagulation factor X (Homo sapiens, UniProt P00742). The test is described as follows: Compound was tested for inhibitory activity against human Coagulation factor X.
Test [2] concerns the target T1, Serine protease 1 (Bos taurus, UniProt P00760).
T1 sequence (P00760 whole entry): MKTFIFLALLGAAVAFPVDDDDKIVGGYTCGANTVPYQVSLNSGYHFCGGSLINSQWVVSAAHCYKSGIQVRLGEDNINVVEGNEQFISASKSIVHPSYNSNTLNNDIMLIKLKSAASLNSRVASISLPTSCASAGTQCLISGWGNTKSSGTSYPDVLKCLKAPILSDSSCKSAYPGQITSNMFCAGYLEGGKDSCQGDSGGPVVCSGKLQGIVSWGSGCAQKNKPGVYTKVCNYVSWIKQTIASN
The test is described as follows: Compound was tested for inhibitory activity against bovine trypsin.

In test [3] the target is Prothrombin (Homo sapiens, UniProt P00734). The test is described as follows: Compound was tested for inhibitory activity against human thrombin.

Coagulation factor X, sequence (P00742 41-179 limits assumed): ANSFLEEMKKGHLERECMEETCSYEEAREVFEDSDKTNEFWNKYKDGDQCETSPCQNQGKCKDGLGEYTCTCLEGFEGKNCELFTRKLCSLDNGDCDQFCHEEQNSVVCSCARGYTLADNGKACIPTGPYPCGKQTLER
Coagulation factor X, sequence (P00742 235-488 limits assumed): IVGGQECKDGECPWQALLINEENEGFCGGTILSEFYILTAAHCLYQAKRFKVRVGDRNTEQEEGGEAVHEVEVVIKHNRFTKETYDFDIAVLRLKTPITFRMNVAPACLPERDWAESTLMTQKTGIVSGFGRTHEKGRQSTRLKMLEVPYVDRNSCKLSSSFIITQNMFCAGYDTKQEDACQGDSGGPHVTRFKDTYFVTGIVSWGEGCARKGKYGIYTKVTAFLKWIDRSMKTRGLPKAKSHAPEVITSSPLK

For `Cc1nc2c(Oc3cccc(C(=O)N(C)C)c3)nc(Oc3cc(C(=N)N)ccc3O)nc2n1Cc1ccccc1`, the values for the Ki in test [1], in test [2] and in test [3] were 10 nM, 760 nM and 1300 nM, respectively.
For `CN(C)C(=O)c1cccc(Oc2nc3c(c(Oc4cc(C(=N)N)ccc4O)n2)NC(=O)CN3)c1`, the inhibition constant Ki in test [1] came to 19 nM; in test [2], 320 nM; in test [3], 1000 nM.
For `CN(C)C(=O)c1cccc(Oc2nc(Oc3cc(C(=N)N)ccc3O)nc3c2NC(=O)CO3)c1`, the Ki in test [1] is 106 nM; in test [2] it was above 5000 nM; in test [3], above 5000 nM.
As to `CN(C)C(=O)c1cccc(Oc2nc(Oc3cc(C(=N)N)ccc3O)nc3c2NC(=O)CN3)c1`, the figures for the Ki in test [1], in test [2] and in test [3] were 81 nM, 2200 nM and above 5000 nM, respectively.
Turning to `N=C(N)c1ccc(/C=C2/CCCC/C(=C/c3ccc(C(=N)N)cc3)C2=O)cc1`, the Ki in test [2] was 30 nM; in test [3], 430 nM.
For the compound `Cc1nc2c(Oc3cc(C(=N)N)ccc3O)nc(Oc3cccc(C(=O)N(C)C)c3)nc2n1Cc1ccccc1`, the figures for the inhibitory constant (Ki) in test [1], in test [2] and in test [3] were 0.42 nM, 150 nM and 710 nM, respectively.
Regarding `Cc1c(F)c(Oc2cccc(C(=N)N)c2)nc(Oc2cccc(C(=O)N(C)C)c2)c1F`, the Ki in test [3] was above 5000 nM.

Values taken from ChEMBL document CHEMBL1130936, “Design, synthesis, and biological activity of novel purine and bicyclic pyrimidine factor Xa inhibitors” (Bioorg Med Chem Lett, 1998).
